Read-outs that look alike come from different tables or passages of the source.
Experiments:
Type in all cases: in vivo
[1] = system: Cabbage Looper (Trichoplusia ni, TRIPNI); assay: Bioassays on Cabbage Looper (CL), 128-well diet tray assay; details: Trichoplusia ni
Summary of the method: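 Activity is mean percent mortality over eight wells of second-instar larvae exposed to diet treated at 50 μg/cm^2 for 5–7 days at 25° C.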

[2] = system: Yellow Fever Mosquito (Aedes aegypti, AEDSAE); details: for YFM rating: Table ABC / ABC-DP rating
Summary of the method: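 Larvae ~1 day old, in liver powder/water; compound from 4000 ppm DMSO stock diluted with water/acetone (90:10); 6 reps; lidded, RT, 3 d; mortality scored per well, rated.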

[3] = system: Beet Armyworm (Spodoptera exigua, LAPHEG); assay: Bioassays on Beet Armyworm (BAW), 128-well diet tray assay; details: Spodoptera exigua
Summary of the method: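 Mortality of second-instar larvae (1–5/well) on artificial diet treated with 50 μg/cm^2 compound, read after 5–7 days at 25° C.; values are means of eight wells.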

[4] = Cabbage Looper, Table ABC / ABC-DP rating, read-out: CL rating
[5] = Beet Armyworm, Table ABC / ABC-DP rating, read-out: BAW rating
[6] = Table ABC: Biological Results, species CL, read-out: CL
[7] = Table ABC: Biological Results, species YFM
[8] = Table ABC: Biological Results, species BAW, read-out: BAW
[9] = Cabbage Looper, rating class, read-out: CL
[10] = Yellow Fever Mosquito, rating class
[11] = Beet Armyworm, rating class, read-out: BAW

| Structure (SMILES) | pest or weed control at 50 µg/cm2 [1, 4] [%] | YFM rating ([2]; Yellow Fever Mosquito) | pest or weed control at 50 µg/cm2 [3, 5] [%] | pest or weed control at 50 µg/cm2 [1, 6] [%] | YFM [2, 7] | pest or weed control at 50 µg/cm2 [3, 8] [%] | other results |
| --- | --- | --- | --- | --- | --- | --- | --- |
| O=C(NCC(F)(F)C(F)(F)F)c1cc(NC(=O)[C@H]2[C@H](c3ccc(F)c(Cl)c3)C2(Cl)Cl)cc(C(F)(F)F)c1Cl (relative stereo) [F2056, trans-2-Chloro-5-(2,2-dichloro-3-(3-chloro-4-fluorophenyl)cyclopropane-1-carboxamido)-N-(2,2,3,3,3-pentafluoropropyl)-3-(trifluoromethyl)benzamide] | 50 to 100 | A (80–100) | 50 to 100 | – | – | – | – |
| C=CCC(=O)Nc1c(F)ccc(NC(=O)c2cc(NC(=O)[C@H]3[C@H](c4cc(F)cc(C(F)(F)F)c4)C3(Cl)Cl)ccc2Cl)c1F [F1879, N-(3-(But-3-enamido)-2,4-difluorophenyl)-2-chloro-5-((1R,3R)-2,2-dichloro-3-(3-fluoro-5-(trifluoromethyl)phenyl)cyclopropane-1-carboxamido)benzamide] | 50 to 100 | A (80–100) | 50 to 100 | – | – | – | – |
| CCCN(C(=O)C(C)OCC)c1c(F)ccc(NC(=O)c2cc(NC(=O)[C@H]3[C@H](c4ccc(F)c(C(F)(F)F)c4)C3(Cl)Cl)ccc2Cl)c1F (stereo partly drawn) [F1842, 2-Chloro-5-((1R,3R)-2,2-dichloro-3-(4-fluoro-3-(trifluoromethyl)phenyl)cyclopropane-1-carboxamido)-N-(3-(2-ethoxy-N-propylpropanamido)-2,4-difluorophenyl)benzamide] | 50 to 100 | A (80–100) | 50 to 100 | – | – | – | – |
| N#CCC(=O)Nc1c(F)ccc(NC(=O)c2cc(NC(=O)[C@H]3[C@H](c4ccc(F)c(C(F)(F)F)c4)C3(Cl)Cl)ccc2Cl)c1F [F1369, 2-Chloro-N-(3-(2-cyanoacetamido)-2,4-difluorophenyl)-5-((1R,3R)-2,2-dichloro-3-(4-fluoro-3-(trifluoromethyl)phenyl)cyclopropane-1-carboxamido)benzamide] | – | – | – | 50 to 100 | A (80–100) | 50 to 100 | – |
| CC(=O)NNC(=O)c1cc(NC(=O)[C@H]2[C@H](c3cc(Cl)cc(Cl)c3)C2(Cl)Cl)ccc1Cl (relative stereo) [F2514, trans-N-(3-(2-acetylhydrazine-1-carbonyl)-4-chlorophenyl)-2,2-dichloro-3-(3,5-dichlorophenyl)cyclopropane-1-carboxamide] | 50 to 100 | A (80–100) | 50 to 100 | – | – | – | – |
| O=C(NCC(F)(F)F)c1cc(NC(=O)[C@H]2[C@@H](c3cc(F)c(Cl)c(Cl)c3)C2(Cl)Cl)ccc1Cl (relative stereo) [F2007, cis-2-Chloro-5-(2,2-dichloro-3-(3,4-dichloro-5-fluorophenyl)cyclopropane-1-carboxamido)-N-(2,2,2-trifluoroethyl)benzamide] | 50 to 100 | A (80–100) | 50 to 100 | – | – | – | – |
| O=C(NCCCNC(=O)C(F)(F)F)c1cc(NC(=O)[C@H]2[C@H](c3cc(Cl)cc(Cl)c3)C2(Cl)Cl)ccc1Cl (relative stereo) [F2094, trans-2-Chloro-5-(2,2-dichloro-3-(3,5-dichlorophenyl)cyclopropane-1-carboxamido)-N-(3-(2,2,2-trifluoroacetamido)propyl)benzamide] | 50 to 100 | B (More than 0 – Less than 80) | 50 to 100 | – | – | – | – |
| C=Cc1cc(F)ccc1NC(=O)c1cc(NC(=O)[C@H]2[C@H](c3cc(Cl)cc(Cl)c3)C2(Cl)Cl)ccc1Cl (relative stereo) [F1312, trans-2-Chloro-5-(2,2-dichloro-3-(3,5-dichlorophenyl)cyclopropane-1-carboxamido)-N-(4-fluoro-2-vinylphenyl)benzamide] | – | – | – | 50 to 100 | A (80–100) | 50 to 100 | – |
| O=C(Nc1ccc(F)cc1F)c1cc(NC(=O)[C@H]2[C@@H](c3cc(F)c(Cl)c(C(F)(F)F)c3)C2(Cl)Cl)ccc1Cl (relative stereo) [F1164, cis-2-Chloro-5-(2,2-dichloro-3-(4-chloro-3-fluoro-5-(trifluoromethyl)phenyl)cyclopropane-1-carboxamido)-N-(2,4-difluorophenyl)benzamide] | – | – | – | 50 to 100 | A (80–100) | 50 to 100 | – |
| CC(F)(F)C(=O)Nc1c(F)ccc(NC(=O)c2cc(NC(=O)[C@H]3[C@H](c4ccc(Cl)c(Cl)c4)C3(Cl)Cl)ccc2Cl)c1F [F1249, 2-Chloro-5-((1R,3R)-2,2-dichloro-3-(3,4-dichlorophenyl)cyclopropane-1-carboxamido)-N-(3-(2,2-difluoropropanamido)-2,4-difluorophenyl)benzamide] | – | – | – | 50 to 100 | A (80–100) | 50 to 100 | – |
| O=C(Nc1ccc(F)c(NC(=O)C(F)(F)Br)c1F)c1cc(NC(=O)[C@H]2[C@H](c3ccc(F)c(C(F)(F)F)c3)C2(Cl)Cl)ccc1Cl [F1276, N-(3-(2-Bromo-2,2-difluoroacetamido)-2,4-difluorophenyl)-2-chloro-5-((1R,3R)-2,2-dichloro-3-(4-fluoro-3-(trifluoromethyl)phenyl)cyclopropane-1-carboxamido)benzamide] | – | – | – | 50 to 100 | A (80–100) | 50 to 100 | – |
| Nc1c(F)ccc(NC(=O)c2cc(NC(=O)[C@H]3[C@H](c4ccc(Br)cc4)C3(Cl)Cl)ccc2Cl)c1F (relative stereo) [F1591, trans-N-(3-Amino-2,4-difluorophenyl)-5-(3-(4-bromophenyl)-2,2-dichlorocyclopropane-1-carboxamido)-2-chlorobenzamide] | – | – | – | – | – | – | pest or weed control at 50 µg/cm2 [1, 9]: 50 to 100%; YFM [2, 10]: A (80–100); pest or weed control at 50 µg/cm2 [3, 11]: 50 to 100% |
| CC(=O)Nc1ccc(F)c(NC(=O)c2cc(NC(=O)[C@H]3[C@H](c4ccc(F)c(C(F)(F)F)c4)C3(Cl)Cl)ccc2Cl)c1F [F1454, N-(3-Acetamido-2,6-difluorophenyl)-2-chloro-5-((1R,3R)-2,2-dichloro-3-(4-fluoro-3-(trifluoromethyl)phenyl)cyclopropane-1-carboxamido)benzamide] | – | – | – | – | – | – | pest or weed control at 50 µg/cm2 [1, 9]: 50 to 100%; YFM [2, 10]: A (80–100); pest or weed control at 50 µg/cm2 [3, 11]: 50 to 100% |
| C#CCC(=O)N(CC)c1c(F)ccc(NC(=O)c2cc(NC(=O)[C@H]3[C@H](c4ccc(F)c(C(F)(F)F)c4)C3(Cl)Cl)ccc2Cl)c1F [F1763] | – | – | – | – | – | – | pest or weed control at 50 µg/cm2 [1, 9]: 50 to 100%; YFM [2, 10]: A (80–100); pest or weed control at 50 µg/cm2 [3, 11]: 50 to 100% |
| CN(NC(=O)c1cc(NC(=O)[C@H]2[C@H](c3cc(Cl)cc(Cl)c3)C2(Cl)Cl)ccc1Cl)c1ccccc1 [F2510, (1R,3R)-2,2-Dichloro-N-(4-chloro-3-(2-methyl-2-phenylhydrazine-1-carbonyl)phenyl)-3-(3,5-dichlorophenyl)cyclopropane-1-carboxamide] | 50 to 100 | A (80–100) | 50 to 100 | – | – | – | – |
| O=C(Nc1ccc(F)cc1F)c1cc(NC(=O)[C@H]2[C@@H](c3cc(F)c(F)c(Br)c3)C2(Cl)Cl)ccc1Cl (relative stereo) [F1012, cis-5-(3-(3-Bromo-4,5-difluorophenyl)-2,2-dichlorocyclopropane-1-carboxamido)-2-chloro-N-(2,4-difluorophenyl)benzamide] | – | – | – | 50 to 100 | A (80–100) | 50 to 100 | – |
